Measured values reported in PubChem BioAssay (NCI).
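Values below derive from 48-hour exposures of cells grown in 96-well plates, with endpoints linearly interpolated between the two concentrations bracketing the appropriate inhibition level. GI50: concentration for 50% inhibition of growth. TGI: total growth inhibition.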

Tests used:
Experiment in all cases: NCI-60 cell line screen, 48 h
[1] = tested on: 786-0 renal
[2] = tested on: M14 melanoma
[3] = tested on: HT29 colon
[4] = tested on: BT-549 breast
[5] = tested on: EKVX NSCLC
[6] = tested on: CCRF-CEM leukemia
[7] = tested on: OVCAR-3 ovarian
[8] = tested on: TK-10 renal
[9] = tested on: HOP-62 NSCLC
[10] = tested on: SNB-75 CNS
[11] = tested on: SK-MEL-2 melanoma
[12] = tested on: HCT-116 colon
[13] = tested on: A549 NSCLC
[14] = tested on: NCI-H226 lung
[15] = tested on: HS 578T breast
[16] = tested on: A498 renal
[17] = tested on: MDA-MB-231 breast
[18] = tested on: DU-145 prostate
[19] = tested on: PC-3 prostate
[20] = tested on: SF-539 CNS
[21] = tested on: UACC-257 melanoma
[22] = tested on: MDA-MB-435
[23] = tested on: SR leukemia
[24] = tested on: UACC-62 melanoma
[25] = tested on: HL-60(TB) leukemia
[26] = tested on: SK-OV-3 ovarian
[27] = tested on: SNB-19 CNS
[28] = tested on: MCF7 breast
[29] = tested on: HOP-92 NSCLC
[30] = tested on: SK-MEL-28 melanoma
[31] = tested on: NCI-H23 lung
[32] = tested on: NCI/ADR-RES ovarian
[33] = tested on: OVCAR-8 ovarian
[34] = tested on: RPMI-8226 leukemia
[35] = tested on: KM12 colon
[36] = tested on: COLO 205 colon
[37] = tested on: MALME-3M melanoma
[38] = tested on: NCI-H522 lung
[39] = tested on: T-47D breast
[40] = tested on: SN12C renal
[41] = tested on: ACHN renal
[42] = tested on: RXF 393 renal
[43] = tested on: CAKI-1 renal
[44] = tested on: HCT-15 colon
[45] = tested on: UO-31 renal
[46] = tested on: LOX IMVI melanoma
[47] = tested on: OVCAR-4 ovarian
[48] = tested on: SF-268 CNS
[49] = tested on: IGROV1 ovarian
[50] = tested on: SW-620 colon
[51] = tested on: HCC-2998 colon
[52] = tested on: OVCAR-5 ovarian
[53] = tested on: U251 CNS
[54] = tested on: SK-MEL-5 melanoma
[55] = tested on: MOLT-4 leukemia
[56] = tested on: NCI-H460 lung
[57] = tested on: K-562 leukemia
[58] = tested on: SF-295 CNS

`O=C1/C=C/[C@@H](O)[C@@H]2C[C@@H](O)C[C@H]2/C=C/CCC[C@H](CO)O1` was tested, and the GI50 [1] was 1.78 µM, the TGI [1] was 4.87 µM and the GI50 [2] was 2.42 µM. For the same compound, the TGI [2] was over 100 µM, the GI50 [3] was 0.942 µM and the TGI [3] was 12.4 µM. The GI50 [4] was 3.98 µM, the TGI [4] was over 100 µM and the GI50 [5] was 3.11 µM. The TGI [5] was over 100 µM, the GI50 [6] was 4.19 µM and the TGI [6] was over 100 µM. It also gave a GI50 [7] of 2.2 µM, a TGI [7] of over 100 µM and a GI50 [8] of 3.06 µM. For the same compound, the TGI [8] was 10.9 µM, the GI50 [9] was 3.66 µM and the TGI [9] was over 100 µM. The GI50 [10] was 2.37 µM, the TGI [10] was over 100 µM and the GI50 [11] was 2.39 µM. For the same compound, the TGI [11] was 5.95 µM, the GI50 [12] was 2.52 µM and the TGI [12] was 6.54 µM. It also gave a GI50 [13] of 3.65 µM, a TGI [13] of over 100 µM and a GI50 [14] of 1.21 µM. It also gave a TGI [14] of 2.74 µM, a GI50 [15] of over 100 µM and a TGI [15] of over 100 µM. For the same compound, the GI50 [16] was 1.31 µM, the TGI [16] was over 100 µM and the GI50 [17] was 1.96 µM. It also gave a TGI [17] of 4.81 µM, a GI50 [18] of 7.75 µM and a TGI [18] of over 100 µM. For the same compound, the GI50 [19] was 2.5 µM, the TGI [19] was over 100 µM and the GI50 [20] was 3.7 µM. The TGI [20] was over 100 µM, the GI50 [21] was 1.68 µM and the TGI [21] was over 100 µM. For the same compound, the GI50 [22] was 2.91 µM, the TGI [22] was over 100 µM and the GI50 [23] was 2.5 µM. The TGI [23] was over 100 µM, the GI50 [24] was 2.55 µM and the TGI [24] was over 100 µM. For the same compound, the GI50 [25] was 2.24 µM, the TGI [25] was 8.29 µM and the GI50 [26] was 4.62 µM. The TGI [26] was over 100 µM, the GI50 [27] was 3.09 µM and the TGI [27] was over 100 µM. It also gave a GI50 [28] of 1.79 µM, a TGI [28] of 5.88 µM and a GI50 [29] of 2.76 µM. For the same compound, the TGI [29] was over 100 µM, the GI50 [30] was 0.626 µM and the TGI [30] was 3.65 µM. For the same compound, the GI50 [31] was 2.25 µM, the TGI [31] was over 100 µM and the GI50 [32] was 3.17 µM. The TGI [32] was over 100 µM, the GI50 [33] was 3 µM and the TGI [33] was over 100 µM. For the same compound, the GI50 [34] was 3.32 µM, the TGI [34] was over 100 µM and the GI50 [35] was 2.42 µM. It also gave a TGI [35] of over 100 µM, a GI50 [36] of 1.7 µM and a TGI [36] of 3.32 µM. It also gave a GI50 [37] of 1.93 µM, a TGI [37] of 7.19 µM and a GI50 [38] of 2.67 µM. It also gave a TGI [38] of 7.74 µM, a GI50 [39] of 2.49 µM and a TGI [39] of 7.12 µM. For the same compound, the GI50 [40] was 4.24 µM, the TGI [40] was over 100 µM and the GI50 [41] was 3.97 µM. The TGI [41] was over 100 µM, the GI50 [42] was 1.61 µM and the TGI [42] was 5.04 µM. For the same compound, the GI50 [43] was 3.74 µM, the TGI [43] was over 100 µM and the GI50 [44] was 3.62 µM. It also gave a TGI [44] of over 100 µM, a GI50 [45] of 2.98 µM and a TGI [45] of over 100 µM. For the same compound, the GI50 [46] was 0.832 µM, the TGI [46] was 3.81 µM and the GI50 [47] was 2.07 µM. It also gave a TGI [47] of over 100 µM, a GI50 [48] of 1.33 µM and a TGI [48] of over 100 µM. It also gave a GI50 [49] of 4.2 µM, a TGI [49] of over 100 µM and a GI50 [50] of 2.32 µM. The TGI [50] was 6.81 µM, the GI50 [51] was 2.61 µM and the TGI [51] was over 100 µM. The GI50 [52] was 4.19 µM, the TGI [52] was over 100 µM and the GI50 [53] was 3.3 µM. It also gave a TGI [53] of over 100 µM, a GI50 [54] of 0.705 µM and a TGI [54] of 2.08 µM. For the same compound, the GI50 [55] was 3.11 µM, the TGI [55] was over 100 µM and the GI50 [56] was 3.21 µM. For the same compound, the TGI [56] was over 100 µM.
`Oc1ccc2ccccc2c1N=Nc1ccccn1` showed a GI50 [2] of 1.41 µM, a TGI [2] of 7.1 µM and a GI50 [3] of 0.523 µM. It also gave a TGI [3] of over 100 µM, a GI50 [4] of 3.44 µM and a TGI [4] of over 100 µM. The GI50 [5] was 0.449 µM, the TGI [5] was 43.4 µM and the GI50 [6] was 0.312 µM. For the same compound, the TGI [6] was 22.8 µM, the GI50 [7] was 0.266 µM and the GI50 [8] was 1.53 µM. It also gave a TGI [8] of over 86.2 µM, a GI50 [9] of 1.41 µM and a TGI [9] of over 100 µM. It also gave a GI50 [10] of 7.49 µM, a TGI [10] of over 86.7 µM and a GI50 [11] of 3.08 µM. It also gave a TGI [11] of over 82.5 µM, a GI50 [12] of 0.277 µM and a TGI [12] of 2.77 µM. It also gave a GI50 [13] of 2.95 µM, a TGI [13] of over 59.3 µM and a GI50 [14] of 1.94 µM. It also gave a TGI [14] of over 87.9 µM, a GI50 [15] of 7.52 µM and a TGI [15] of over 52.8 µM. For the same compound, the GI50 [16] was 2.39 µM, the TGI [16] was 20 µM and the GI50 [17] was 0.468 µM. It also gave a TGI [17] of over 100 µM, a GI50 [18] of 1.83 µM and a TGI [18] of over 100 µM. It also gave a GI50 [19] of 1.76 µM, a TGI [19] of over 100 µM and a GI50 [20] of 1.6 µM. The TGI [20] was over 28.4 µM, the GI50 [21] was 2.01 µM and the TGI [21] was 8.02 µM. It also gave a GI50 [22] of 2.11 µM, a TGI [22] of over 100 µM and a GI50 [23] of 0.356 µM. The TGI [23] was 10.4 µM, the GI50 [24] was 1.35 µM and the TGI [24] was 8.22 µM. It also gave a GI50 [25] of 0.469 µM, a TGI [25] of 3.23 µM and a GI50 [26] of 1.14 µM. The TGI [26] was over 100 µM, the GI50 [27] was 2.53 µM and the TGI [27] was over 100 µM. For the same compound, the GI50 [28] was 0.527 µM, the TGI [28] was over 100 µM and the GI50 [29] was 3.02 µM. It also gave a TGI [29] of over 100 µM, a GI50 [30] of 2.8 µM and a TGI [30] of over 100 µM. For the same compound, the GI50 [31] was 2.82 µM, the TGI [31] was over 100 µM and the GI50 [32] was 0.575 µM. The TGI [32] was 4.64 µM, the GI50 [33] was 0.447 µM and the TGI [33] was over 27.4 µM. For the same compound, the GI50 [34] was 1.98 µM, the TGI [34] was over 100 µM and the GI50 [35] was 0.919 µM. For the same compound, the TGI [35] was over 100 µM, the GI50 [36] was 0.431 µM and the TGI [36] was 21.4 µM. For the same compound, the GI50 [37] was 2.07 µM, the TGI [37] was 10.6 µM and the GI50 [57] was 0.6 µM. For the same compound, the TGI [57] was over 100 µM, the GI50 [38] was 1.97 µM and the TGI [38] was 43 µM. It also gave a GI50 [39] of 0.681 µM, a TGI [39] of over 28.4 µM and a GI50 [40] of 1.46 µM. It also gave a TGI [40] of over 100 µM, a GI50 [41] of 0.423 µM and a TGI [41] of over 100 µM. For the same compound, the GI50 [58] was 0.8 µM, the TGI [58] was 13.5 µM and the GI50 [42] was 3.44 µM. For the same compound, the TGI [42] was over 100 µM, the GI50 [43] was 0.138 µM and the TGI [43] was 0.906 µM. It also gave a GI50 [44] of 0.497 µM, a TGI [44] of over 100 µM and a GI50 [45] of 0.306 µM. The TGI [45] was over 25.8 µM, the GI50 [46] was 0.356 µM and the TGI [46] was 12.4 µM. It also gave a GI50 [47] of 0.408 µM, a TGI [47] of 3.87 µM and a GI50 [48] of 0.554 µM. For the same compound, the TGI [48] was over 100 µM, the GI50 [49] was 0.349 µM and the TGI [49] was 8.14 µM. For the same compound, the GI50 [50] was 0.652 µM, the TGI [50] was over 100 µM and the GI50 [51] was 2.35 µM. It also gave a TGI [51] of over 100 µM, a GI50 [52] of 4 µM and a TGI [52] of over 100 µM. It also gave a GI50 [53] of 0.563 µM, a TGI [53] of over 100 µM and a GI50 [54] of 2.75 µM. For the same compound, the TGI [54] was 15.6 µM, the GI50 [55] was 0.296 µM and the TGI [55] was 12.5 µM. For the same compound, the GI50 [56] was 0.532 µM and the TGI [56] was 5.49 µM.
